From US20110257258A1 (priority 2006, published 2011) come the findings set out here.

The subject of assay [1] is H5N1. It is filed as cell-based.
Assay [2] deals with Avian Influenza virus. On the set-up: species or system Human. Particulars: in vivo.
Assay [3] has as its system Avian Influenza virus. On the set-up: species or system Human. The following applies: in vivo. The source holds these as a separate data set.

Regarding `O=C(O[C@@H]1Cc2c(O)cc(O)cc2O[C@@H]1c1cc(=O)c(O)c2c(O)c(O)cc([C@H]3Oc4cc(O)cc(O)c4C[C@H]3O)c2c1)c1cc(O)c(O)c(O)c1` [theaflavin-3-monogallate], in assay [1], the “inhibits H5N1 infections in mammalian cells by blocking the attachment and entry into the cells” value is on record as “inhibits H5N1 infections”.

For `O=c1c(O)cc([C@H]2Oc3cc(O)cc(O)c3C[C@H]2O)cc2c([C@H]3Oc4cc(O)cc(O)c4C[C@H]3O)cc(O)c(O)c12` [theaflavin], the “inhibits H5N1 infections in mammalian cells by blocking the attachment and entry into the cells” value in assay [1] is reported as “inhibits H5N1 infections”. For the same molecule, in assay [2], the “adults in the test group developing Avian Influenza symptoms” value is given as “None”. In assay [3], the “abatement of Avian Influenza symptoms” value is recorded as “abate more rapidly than normal” and the “recovery from the Avian Influenza illness” value is on record as “fully recovers”.

Turning to (−)-epigallocatechin gallate [EGCG], the “inhibits H5N1 infections in mammalian cells by blocking the attachment and entry into the cells” value in assay [1] is reported as “inhibits H5N1 infections”.

As for theaflavin-3,3′-digallate, the “inhibits H5N1 infections in mammalian cells by blocking the attachment and entry into the cells” value in assay [1] was “inhibits H5N1 infections”.

For theaflavin-3′-gallate, the “inhibits H5N1 infections in mammalian cells by blocking the attachment and entry into the cells” value in assay [1] was “inhibits H5N1 infections”.
